Measurements: the OligoGym collection
These antisense oligonucleotides have a phosphorothioate backbone; sugars and methylation of C are not fully specified.

Target: not given
Conditions: ASO
Further: test concentration or dose not given here.

Going from TTCTGGCACTTTCTATGA to ACTGCCTTCTCTGCCCACTT, the remaining target (mRNA or protein) (fraction of control) falls from 0.72 to 0.41.

TTTCTCATTGCCTTCACG and GTCCCTGCACCCCTAGTC cannot be ordered by remaining target (mRNA or protein) (fraction of control): ≥ 1 for the first, ≥ 1 for the second.

GATGAACCTCTTGGCTGC and GTAGATGAGGGCGATCAC cannot be ordered by remaining target (mRNA or protein) (fraction of control): ≥ 1 for the first, ≥ 1 for the second.

Compared with AGTGCATAAGAGGCCACAGC, CACCCTGGCATCCCAAAT is lower in remaining target (mRNA or protein) (fraction of control): 0.56 for the first, 0.13 for the second.

Compared with CCCCACGCTGCCCTCGGA, CGTGTTGATAGTTGCAGTTC is higher in remaining target (mRNA or protein) (fraction of control): 0.8 for the first, ≥ 1 for the second.

Going from AAGTCCAAGACAGAATCTGT to CTCGATCGCTCCTCGTGC, the remaining target (mRNA or protein) (fraction of control) rises from 0.46 to ≥ 1.

Compared with GCTTGAGTGCTGGGAACA, TCAACTTCTTTTGCCGAA is lower in remaining target (mRNA or protein) (fraction of control): ≥ 1 for the first, 0.62 for the second.

First: CCCAGGCGGAGGTCGGCG
Second: ACCAGCCCCGAGCGTTTG
The remaining target (mRNA or protein) (fraction of control) of the first is higher: ≥ 1 for the first, 0.74 for the second.

First: GTCCAGCCACTGCAGTGGCC
Second: CCTGTTTACTGCTCTCCC
The remaining target (mRNA or protein) (fraction of control) of the first is higher: 0.82 for the first, 0.8 for the second.

Going from AAGGTGCTCTTCCCGCTC to GCTTCCTGTCCATCACTG, the remaining target (mRNA or protein) (fraction of control) rises from 0.29 to 0.71.

First: CGCTCCGAAAAGAGACAG
Second: CTGCTTCTTCTGCTCCAA
The remaining target (mRNA or protein) (fraction of control) of the first is higher: 0.87 for the first, 0.57 for the second.

First: TGCGCTCCTCCTCCGAGT
Second: TGTGGGCCGAGGCTGGAG
The remaining target (mRNA or protein) (fraction of control) of the first is higher: ≥ 1 for the first, 0.85 for the second.

Compared with GAGGCGCTGCGGAACTTGGC, AGTAGGTTTTGGTGGTTT is higher in remaining target (mRNA or protein) (fraction of control): 0.5 for the first, ≥ 1 for the second.

First: AGCTCCCTTCTTACTCCC
Second: CTGCCTCTCTCTCCTCCG
The remaining target (mRNA or protein) (fraction of control) of the first is lower: 0.69 for the first, ≥ 1 for the second.

First: GGCTGCTGAGAATCTGAA
Second: CCGCTCTTGGGTCTGGCA
The remaining target (mRNA or protein) (fraction of control) of the first is higher: 0.78 for the first, 0.29 for the second.

Compared with TCTCCTTCATGCGGTTCT, TGTCTGGGTCCACCGTGC is lower in remaining target (mRNA or protein) (fraction of control): 0.61 for the first, 0.45 for the second.

Going from ACATTGAGGGAGTCGTTG to GCGCGTCCGGTGCTCCCA, the remaining target (mRNA or protein) (fraction of control) falls from ≥ 1 to 0.75.

Compared with AGGTAGTACACGGCTGAA, CCATCTATGAGCACACTTCG is higher in remaining target (mRNA or protein) (fraction of control): 0.28 for the first, 0.33 for the second.

Compared with CCTCCGCCCTCTCTTGCC, AAAGCCGTGGTGAACTGACT is higher in remaining target (mRNA or protein) (fraction of control): 0.8 for the first, 0.84 for the second.

First: CAAAACCTAAATCCCTGG
Second: GTTGATCTCGTCCAGGTA
The remaining target (mRNA or protein) (fraction of control) of the first is higher: ≥ 1 for the first, 0.28 for the second.

Going from CACTCTCGGGCAGCCAGC to AATTCTGCCAGGTTGCTG, the remaining target (mRNA or protein) (fraction of control) rises from 0.91 to ≥ 1.

First: CCTAGCAGTCTCTTCACTGC
Second: AGGGAATAAATACAAAAG
The remaining target (mRNA or protein) (fraction of control) of the first is lower: 0.74 for the first, ≥ 1 for the second.

CAAAGCGCTTAACTACAT and CTTCTTGCTGCCCTCGGG cannot be ordered by remaining target (mRNA or protein) (fraction of control): ≥ 1 for the first, ≥ 1 for the second.

Compared with GATGGGGGTGGTGGAGTGCA, TTATAAGCCAAAGTGCGT is higher in remaining target (mRNA or protein) (fraction of control): 0.75 for the first, ≥ 1 for the second.

First: AACGTGGTCACTTTATAG
Second: CCAAAGAGCTGCTGGGAA
The remaining target (mRNA or protein) (fraction of control) of the first is lower: 0.73 for the first, ≥ 1 for the second.

Going from ACAGATCCAGTGGCTTGT to CGGCTGAATCGAGCAGGT, the remaining target (mRNA or protein) (fraction of control) falls from ≥ 1 to 0.93.

First: TTCGCCGCACCGACTCGC
Second: AAGACAATGTGGAATCGG
The remaining target (mRNA or protein) (fraction of control) of the first is lower: 0.9 for the first, ≥ 1 for the second.

Going from ATTTCTCTCGTCCGCAAA to AGGCTGCTGGAAAGAGTCAG, the remaining target (mRNA or protein) (fraction of control) rises from 0.34 to 0.53.

Going from GGGAGTTGACGAAGATGG to ATTCTCCCAAAGCGTCCC, the remaining target (mRNA or protein) (fraction of control) falls from 0.96 to 0.81.

Going from CCGCCAGAAAGACCCCAC to GGCGGCCTTCTCATCCTC, the remaining target (mRNA or protein) (fraction of control) falls from ≥ 1 to 0.96.

Sequence CGCACAGCCCTTCACGGCAA has a remaining target (mRNA or protein) (fraction of control) of 0.32.

Target: SRA1
Conditions: ASO

Compared with GAGGGTCCATACTAAGCG, TGGCCACGGCAGTCTTCC is lower in remaining target (mRNA or protein) (fraction of control): 0.53 for the first, 0.52 for the second.

Going from TCACATGGTCAACCATGA to GGATGCTTGTTCAGTCTA, the remaining target (mRNA or protein) (fraction of control) rises from 0.93 to ≥ 1.

Compared with CTTTTAACTCCTACCATC, ACGCCAGAGGCAGGACCA is higher in remaining target (mRNA or protein) (fraction of control): 0.43 for the first, 0.55 for the second.

Compared with GGGTCCGCCGGCCTGGGT, CCCGGCTTCACGTACAGC is lower in remaining target (mRNA or protein) (fraction of control): ≥ 1 for the first, 0.63 for the second.

Compared with GCACCAGTAGAGCCATTC, GCCAGAGGCAGGACCACT is higher in remaining target (mRNA or protein) (fraction of control): 0.3 for the first, 0.72 for the second.

Going from GAGCCTCAGACTCGACTG to TTGGTAAGCAGCGAGCGC, the remaining target (mRNA or protein) (fraction of control) falls from 0.65 to 0.56.

First: CATGGTCAACCATGAGGG
Second: CCAGCCGCGTTCCTTGTT
The remaining target (mRNA or protein) (fraction of control) of the first is higher: ≥ 1 for the first, 0.69 for the second.

First: GCTTGAAAGCTCTTGCAC
Second: AACTTTCCTCCAGCCCAC
The remaining target (mRNA or protein) (fraction of control) of the first is higher: ≥ 1 for the first, 0.21 for the second.

TTCTTTACAGGTATTGAC and CTCAGCTGTGGCTGCAGA cannot be ordered by remaining target (mRNA or protein) (fraction of control): ≥ 1 for the first, ≥ 1 for the second.

Compared with AGTCGAGCCTCAGACTCG, CCGCGTTCCTTGTTGCCG is higher in remaining target (mRNA or protein) (fraction of control): 0.72 for the first, 0.94 for the second.

Compared with GTAGGCAGTAGTCTGACT, CAACTTTCCTCCAGCCCA is lower in remaining target (mRNA or protein) (fraction of control): 0.42 for the first, 0.41 for the second.

AACTGCGGCGGGTCGTTC and TTTTAACTCCTACCATCC cannot be ordered by remaining target (mRNA or protein) (fraction of control): ≥ 1 for the first, ≥ 1 for the second.

ACATACCTGCTTCCTTGT and CTTCCCTCATAGGTGGGT cannot be ordered by remaining target (mRNA or protein) (fraction of control): ≥ 1 for the first, ≥ 1 for the second.

Going from CGTCGGCTGATGTCATCA to GTGGATGTCATCTGCTGC, the remaining target (mRNA or protein) (fraction of control) rises from 0.61 to ≥ 1.

Going from TCTCCAAGGCATAGGAGA to AAAACAGACTCCTCTTTT, the remaining target (mRNA or protein) (fraction of control) falls from 0.8 to 0.54.

Compared with GGCCCAGGAGAAGTCTCT, CTGCTGCGTCCCACCGGT is lower in remaining target (mRNA or protein) (fraction of control): ≥ 1 for the first, 0.21 for the second.

Going from TGACAGAAGGTCTCCAAG to TCTGAAAACAGACTCCTC, the remaining target (mRNA or protein) (fraction of control) rises from 0.81 to 0.99.

Compared with GAGGCCCGGAACTCCACT, GACACCAGAGGGACTAGC is lower in remaining target (mRNA or protein) (fraction of control): 0.89 for the first, 0.73 for the second.

Going from CGTATGAGAACTGCGGCG to CCAGTAGAGCCATTCTCT, the remaining target (mRNA or protein) (fraction of control) falls from ≥ 1 to 0.83.

Going from CCTTGTGTGGCCACGGCA to ACCCTCTTGGTAAGCAGC, the remaining target (mRNA or protein) (fraction of control) rises from 0.43 to ≥ 1.

First: ATTTGAGGAGATGGTGTC
Second: CGGCAGTCTTCCAATGCC
The remaining target (mRNA or protein) (fraction of control) of the first is lower: 0.94 for the first, ≥ 1 for the second.

Compared with TCTGCTGCGTCCCACCGG, GCTCCACGCCAGAGGCAG is higher in remaining target (mRNA or protein) (fraction of control): 0.32 for the first, 0.49 for the second.

Compared with AACCGAGGATTATGAAGC, TCCAAAGGTCTCAGCACA is lower in remaining target (mRNA or protein) (fraction of control): 0.57 for the first, 0.26 for the second.

Compared with GGAGCCAAGTGACAGAAG, GACCACTCCCCACAGGTG is higher in remaining target (mRNA or protein) (fraction of control): 0.86 for the first, ≥ 1 for the second.

Compared with CAGGGAGCAGGGCAGTCG, CAGTGCCAGGCGTCGGCT is higher in remaining target (mRNA or protein) (fraction of control): 0.35 for the first, 0.66 for the second.

Compared with GGCACCGGAAGGAGATGG, GTCGGCTGATGTCATCAC is higher in remaining target (mRNA or protein) (fraction of control): 0.43 for the first, ≥ 1 for the second.

Compared with CTCCAGCCCACTGTTCCT, GGCCTGGGTCTGCAGCCC is lower in remaining target (mRNA or protein) (fraction of control): ≥ 1 for the first, 0.94 for the second.

First: CTCCATCAGTCGAGCCTC
Second: GAGGGAGCGGTGGATGTC
The remaining target (mRNA or protein) (fraction of control) of the first is higher: ≥ 1 for the first, 0.48 for the second.

Going from TTTACAGGTATTGACAAC to TTGGCTGCCTCCTCTGAA, the remaining target (mRNA or protein) (fraction of control) falls from ≥ 1 to 0.58.

First: CCAGCAGATCCCTTCCTG
Second: TGTGTGGCCACGGCAGTC
The remaining target (mRNA or protein) (fraction of control) of the first is higher: ≥ 1 for the first, 0.47 for the second.

Compared with ACATGGTCAACCATGAGG, GGGTCAGGCCCAGTGGGA is higher in remaining target (mRNA or protein) (fraction of control): 0.54 for the first, ≥ 1 for the second.

Going from CCCCACTCAATGTGGTTC to TGAAAGCTCTTGCACCAG, the remaining target (mRNA or protein) (fraction of control) rises from 0.31 to 0.64.

Compared with CCTGCTGGAAGCCTGGTA, CAGAGGTTTGCAGATACA is lower in remaining target (mRNA or protein) (fraction of control): ≥ 1 for the first, 0.35 for the second.

Going from GGTTCTTCTCAGCTGTGG to AGGCCCAGGAGAAGTCTC, the remaining target (mRNA or protein) (fraction of control) rises from 0.49 to 0.61.

Going from TGAAGGAGGTGGAGGCCC to TGACAACTTTCCTCCAGC, the remaining target (mRNA or protein) (fraction of control) falls from ≥ 1 to 0.15.

Going from CCTGCTTCCTTGTGTGGC to TTCCAAAGGTCTCAGCAC, the remaining target (mRNA or protein) (fraction of control) falls from 0.66 to 0.49.

First: TTCCAGCCGCGTTCCTTG
Second: CTTCATTGGCTGCCTCCT
The remaining target (mRNA or protein) (fraction of control) of the first is higher: ≥ 1 for the first, 0.2 for the second.

Going from CTTTCCTCCAGCCCACTG to CTTTTCTGCAATTAATCT, the remaining target (mRNA or protein) (fraction of control) rises from 0.36 to 0.61.

Compared with TGAATGGAGAAGGGAGAA, TTTCTCTTCATTGGCTGC is lower in remaining target (mRNA or protein) (fraction of control): 0.75 for the first, 0.38 for the second.

First: CTCCTACCATCCACTGAC
Second: ATGCATGTTATGAGTAAC
The remaining target (mRNA or protein) (fraction of control) of the first is lower: 0.46 for the first, ≥ 1 for the second.
